# From ChEMBL document CHEMBL5537109, “Natural products as potential lead compounds to develop new antiviral drugs over the past decade” (Eur J Med Chem, 2023)
# Numbered stars: 1 amine (or outer) side, 2 acyl side, 3 side chain; on linkers, the order of the positions; unused ones are H or OH. Square brackets hold non-standard residues; d marks the D form. Peptide text beside a SMILES is read from it. dAla(ψthiazole) = C[C@@H](N[*:1])c1nc(C(=O)[*:2])cs1; Trp(4-OMe) = COc1cccc2[nH]cc(C[C@H](N)C(=O)O)c12; X1 = CC(=O)[C@](C)(N[*:1])C(=O)[*:2]; dNMeY = CN[C@H](Cc1ccc(O)cc1)C(=O)O; Dhb = C/C=C(\N)C(=O)O; Sar = CNCC(=O)O
# Legend:
# Human alphaherpesvirus 1 [1] = assay: Antiviral activity against HSV-1 infected in African green monkey Vero cells by plaque reduction assay; type: functional, organism-based; details: Human alphaherpesvirus 1, Vero
# Human alphaherpesvirus 2 = assay: Antiviral activity against HSV-2 186 infected in African green monkey Vero cells assessed as reduction in virus induced cytopathogenicity by plaque reduction assay; type: functional, organism-based; details: Human alphaherpesvirus 2, Vero
# Human alphaherpesvirus 3 = assay: Antiviral activity against VZV infected HFF cells assessed as reduction in viral replication; type: functional, organism-based; details: Human alphaherpesvirus 3, HFF
# [2] = Cytotoxicity against African green monkey Vero cells assessed as reduction in cell viability measured after 72 hrs by MTT assay; type: toxicity, cell-based; details: chlorocebus sabaeus
# [3] = system: Human immunodeficiency virus 2; assay: Antiviral activity against HIV-2 ROD infected in human MT4 cells assessed as protection against virus induced cytopathic effect and measured after 5 days by MTT spectrophotometric assay; type: functional, organism-based; details: Human immunodeficiency virus 2, ROD, MT4, 120 h
# [4] = system: Human immunodeficiency virus 1; assay: Antiviral activity against wild type HIV-1 IIIB infected in human MT4 cells assessed as protection against virus-induced cytopathic effect incubated for 5 days by MTT assay; type: functional, organism-based; details: Human immunodeficiency virus 1, IIIB, MT4, 120 h
# [5] = system: Human immunodeficiency virus 1; assay: Antiviral activity against HIV1 A17 infected in human C8166 cells assessed as protection against virus-induced cytopathic effect incubated for 5 days by MTT assay; type: functional, organism-based; details: Human immunodeficiency virus 1, A17, C8166, 120 h
# [6] = system: Human immunodeficiency virus 1; assay: Antiviral activity against HIV1 9495 infected in human C8166 cells assessed as protection against virus-induced cytopathic effect incubated for 5 days by MTT assay; type: functional, organism-based; details: Human immunodeficiency virus 1, 9495, C8166, 120 h
# [7] = system: Human immunodeficiency virus 2; assay: Antiviral activity against HIV-2 ROD infected in C8166 cells assessed as reduction in viral replication measured after 3 days by ELISA; type: functional, organism-based; details: Human immunodeficiency virus 2, ROD, C8166, 72 h
# [8] = system: Human immunodeficiency virus 2; assay: Antiviral activity against wild type HIV-2 CBL-20 infected in human MT4 cells assessed as protection against virus-induced cytopathic effect incubated for 5 days by MTT assay; type: functional, organism-based; details: Human immunodeficiency virus 2, CBL-20, MT4, 120 h
# [9] = Cytotoxicity against human MT4 cells assessed as reduction in cell viability incubated for 5 days by MTT assay; type: toxicity, cell-based; details: time 5 day
# Human alphaherpesvirus 1 [10] = assay: Antiviral activity against HSV-1 at 25 uM relative to control; type: functional
# [11] = target: Human immunodeficiency virus type 1 reverse transcriptase (Human immunodeficiency virus 1, UniProt Q72547); assay: Inhibition of HIV-1 NL4-3 reverse transcriptase by RT-PCR analysis
# A549 = assay: Cytotoxicity against human A549 cells assessed as reduction in cell growth incubated for 5 days by MTS assay; type: functional; details: A549, 120 h, time 5 day
# Human alphaherpesvirus 1 [12] = assay: Antiviral activity against HSV-1 106 infected in African green monkey Vero cells assessed as reduction in virus induced cytopathogenicity by plaque reduction assay; type: functional, organism-based; details: Human alphaherpesvirus 1, 106, Vero
# Human alphaherpesvirus 1 [13] = assay: Antiviral activity against HSV-1 KOS infected in African green monkey Vero cells assessed as reduction in virus induced cytopathogenicity by plaque reduction assay; type: functional, organism-based; details: Human alphaherpesvirus 1, KOS
# Human alphaherpesvirus 1 [14] = assay: Antiviral activity against HSV-1 153 infected in African green monkey Vero cells assessed as reduction in virus induced cytopathogenicity by plaque reduction assay; type: functional, organism-based; details: Human alphaherpesvirus 1, 153, Vero
# Human alphaherpesvirus 1 [15] = assay: Antiviral activity against HSV-1 blue infected in African green monkey Vero cells assessed as reduction in virus induced cytopathogenicity by plaque reduction assay; type: functional, organism-based; details: Human alphaherpesvirus 1, blue
# Influenza A virus = assay: Antiviral activity against influenza A virus (H1N1/A/WSN/33) infected in MDCK cells assessed as inhibition of cytopathic effect incubated for 48 hrs by MTT assay; type: functional, organism-based; details: H1N1/A/WSN/33, MDCK
# [16] = system: Human immunodeficiency virus 1; assay: Antiviral activity against HIV1; type: functional, organism-based
# [17] = Cytotoxicity against African green monkey Vero E6 cells assessed as reduction in cell growth incubated for 24 hrs by WST-8 assay; type: toxicity, cell-based, Vero C1008; details: chlorocebus sabaeus
# SARS-CoV-2 [18] = assay: microbe, parasite or virus in culture; details: Severe acute respiratory syndrome coronavirus 2, NRC-03-nhCoV, Vero C1008, 72 h
# [19] = target: T1, Replicase polyprotein 1ab (Severe acute respiratory syndrome coronavirus 2, UniProt P0DTD1); assay: Inhibition of SARS-CoV-2 3CL protease by FRET assay
# SARS-CoV-2 [20] = assay: Antiviral activity against SARS-CoV-2 B.1.1.7 infected in human Calu-3 cells assessed as inhibition of viral infection measured after 48 hrs by Hoechst 33342 staining based analysis; type: functional, organism-based; details: Severe acute respiratory syndrome coronavirus 2, B.1.1.7, Calu-3, 48 h
# SARS-CoV-2 [21] = assay: Antiviral activity against SARS-CoV-2 […] B.1.351 Beta infected in human 293TA cells assessed as reduction of viral growth measured after 48 hrs by luciferase assay; type: functional, organism-based; details: Severe acute respiratory syndrome coronavirus 2, […] B.1.351 Beta
# Calu-3 = assay: Cytotoxicity against human Calu-3 cells assessed as reduction in cell viability measured after 48 hrs by Hoechst 33342 staining based analysis; type: functional
# SARS-CoV-2 [22] = assay: Antiviral activity against SARS-CoV-2 RG2674 infected in African green monkey Vero cells assessed as reduction in virus-induced cytopathic effect incubated for 5 days by microscopic analysis; type: functional, organism-based; details: Severe acute respiratory syndrome coronavirus 2, RG2674, Vero, 120 h
# [23] = target: T1, Replicase polyprotein 1ab; assay: Inhibition of SARS-CoV-2 3CL protease
structure (smiles),measurement,setting,value
CCCCCCCCCc1oc2c(O)ccc(-c3oc4cc(O)cc(O)c4c(=O)c3O[C@@H]3O[C@H](CO)[C@H](O)[C@H](O)[C@H]3O)c2c1C=O,EC50,Human alphaherpesvirus 1 [1],23.5 µM
same,EC50,Human alphaherpesvirus 2,36.4 µM
same,EC50,Human alphaherpesvirus 3,23.5 µM
same,CC50 at 72 h,[2],166 µM
C=C(C)[C@@]12O[C@@]3(/C=C/C=C/C=C/CCC)O[C@@H]1[C@@H]1[C@@H]4O[C@]4(CO)[C@@H](O)[C@]4(O)C(=O)C(C)=C[C@H]4[C@@]1(O3)[C@H](C)[C@H]2OC(=O)/C=C/c1ccc(O)cc1,EC50,[3],> 0.034 µM
C=C(C)[C@]1(O)C[C@@H](C)[C@@]2(O)[C@H]([C@H]1OC(=O)/C=C/C=C/CCCCC)[C@@H]1O[C@]1(CO)[C@@H](O)[C@]1(O)C(=O)C(C)=C[C@H]12,EC50,[4],0.00872 µg/mL
same,EC50,[5],0.00381 µg/mL
same,EC50,[6],0.0157 µg/mL
same,EC50,[7],0.0189 µg/mL
same,EC50,[8],0.0319 µg/mL
same,CC50 at 120 h,[9],65.6 µg/mL
C=C1CC[C@]2(O)[C@H]1CC1=C(C)C(=O)OC1=C[C@]2(C)O,Activity,Human alphaherpesvirus 1 [10],69.2%
COc1ccc(C[C@@H](CO)[C@H](COC(C)=O)Cc2ccc(OC)c(OC)c2)cc1OC,IC50,[11],12.2 µM
same,CC50,A549,11.6 µg/mL
COc1ccc(C[C@@H]2NC(=O)[C@@H]3CCCN3C(=O)[C@H](C(C)C)NC(=O)[C@@H](Cc3ccc(O)cc3)N(C)C(=O)[C@H](Cc3ccc(OC)cc3)NC2=O)cc1 (cyclo(PY(Me)Y(Me)[dNMeY]V)),EC50,Human alphaherpesvirus 1 [12],10.4 µM
same,CC50 at 72 h,[2],209 µM
same,EC50,Human alphaherpesvirus 1 [13],7.9 µM
same,EC50,Human alphaherpesvirus 1 [14],8.28 µM
same,EC50,Human alphaherpesvirus 1 [15],7.9 µM
C/C=C1\NC(=O)[C@@H](C)NC(=O)CNC(=O)[C@](C)(C(C)=O)NC(=O)[C@H](Cc2c[nH]c3cccc(OC)c23)NC(=O)c2csc(n2)[C@@H](C)NC(=O)CN(C)C1=O (cyclo([Dhb][Sar][dAla(ψthiazole)][Trp(4-OMe)][X1]G[dA])),EC50,Influenza A virus,0.3 µM
O=c1cc(-c2ccc(O)c(-c3c(O)cc(O)c4c(=O)cc(-c5ccc(O)cc5)oc34)c2)oc2cc(O)cc(O)c12 [AMENTOFLAVONE],EC50,[16],8.3 µM
O=C(O)[C@H]1O[C@@H](Oc2cc3oc(-c4ccccc4)cc(=O)c3c(O)c2O)[C@H](O)[C@@H](O)[C@@H]1O [BAICALIN],CC50 at 24 h,[17],> 200 µM
same,EC50,SARS-CoV-2 [18],27.9 µM
CC(C)=CCC/C(C)=C/COc1c2ccoc2cc2oc(=O)ccc12 [BERGAMOTTIN],IC50,[19],9.64 µM
same,IC50,SARS-CoV-2 [20],8.15 µM
same,IC50,SARS-CoV-2 [21],14.2 µM
same,CC50,Calu-3,> 100 µM
Nc1ncnc2c1ncn2[C@@H]1O[C@H](CO)C[C@H]1O [CORDYCEPIN],EC50,SARS-CoV-2 [22],2 µM
COc1cc(O)c(C(=O)[C@@H]2[C@H](CC=C(C)C)C(C)=CC[C@H]2c2ccccc2)c(O)c1 [PANDURATIN A],CC50 at 24 h,[17],14.7 µM
same,IC50,[23],0.81 µM
